{"source": "patent US20240011041A1", "about": "“PHAGE COMPOSITIONS FOR P[…]-CAS SYSTEMS AND METHODS OF USE THEREOF” (priority 2020, published 2024)", "system": "Pseudomonas aeruginosa isolates b1121, b2631, b3144", "assay": "Tobramycin MIC of the challenge isolates", "format": "cell-based", "conditions": "read-out: TOB MIC", "note": "Read-outs that look alike come from different tables or passages of the source."}
{"smiles": "NC[C@H]1O[C@H](O[C@H]2[C@H](O)[C@@H](O[C@H]3O[C@H](CO)[C@@H](O)[C@H](N)[C@H]3O)[C@H](N)C[C@@H]2N)[C@H](N)C[C@@H]1O", "note": "[TOB, tobramycin]", "values": [{"measurement": "MIC", "setting": "isolate b1121, Respiratory", "value": 0.5, "unit": "µg/mL"}, {"measurement": "MIC", "setting": "isolate b2631, CF isolate", "value": 0.5, "unit": "µg/mL"}, {"measurement": "MIC", "setting": "isolate b3144, CF isolate", "value": 2, "unit": "µg/mL"}]}
